Data taken from the OPERA property sets (Mansouri et al. 2018).

`CC(=O)Nc1ccc(Cl)c(Cl)c1` showed a log10 Koc (L/kg) of 2.34.
Molecule `O=Cc1ccccc1C(=O)O` has a melting point of 98 °C.
Molecule `CC1(C)OC(c2ccco2)CN1C(=O)C(Cl)Cl` (configuration not stated) has a log10 vapour pressure (mmHg) of -7.31 and a melting point of 97 °C.
In the case of `Cc1cccc(C)c1I`, the boiling point is reported as 230 °C and the melting point is reported as 11.2 °C.
Work on `C[C@H]1CC[C@@]2(O)C(C)(C)[C@@H]3CC[C@@]2(C)[C@H]1C3` yielded a melting point of 56 °C.
`C[S@](=O)c1ccccc1` gave a boiling point of 264 °C and a melting point of 32 °C.
For `Oc1ccc(C2CCCCC2)cc1`, the boiling point was 294 °C and the melting point was 133 °C.
`CCOc1ccccc1Cl` showed a boiling point of 210 °C.
In the case of `CCOC(=O)NN`, the melting point is reported as 46 °C.
In the case of `CC[C@]1(O)C[C@H]2C[N@](CCc3c([nH]c4ccccc34)[C@@](C(=O)OC)(c3cc4c(cc3OC)N(C)[C@H]3[C@@](O)(C(N)=O)[C@H](O)[C@]5(CC)C=CCN6CC[C@]43[C@@H]65)C2)C1`, the melting point is reported as 231 °C.
Molecule `CCOC(=O)C(C)(C)Br` has a boiling point of 163 °C and a log10 vapour pressure (mmHg) of 0.417.
For `Fc1ccccc1I`, the boiling point was 189 °C and the melting point was -41.5 °C.
Work on `CC(C)C(C(=O)OC(C#N)c1cccc(Oc2ccc(Br)cc2)c1)c1ccc(OC(F)F)cc1` (configuration not stated) yielded a log10 vapour pressure (mmHg) of -8.92.
Molecule `c1ccc(C(c2ccccc2)(c2ccccc2)N2CCOCC2)cc1` has a melting point of 175 °C.
Work on `O=C=C=C=O` yielded a boiling point of 6.8 °C and a melting point of -107 °C.
For `Cc1ccc(Cl)c(Cl)c1Cl`, the boiling point was 244 °C and the melting point was 43.5 °C.
With `CCCCCCCCCCCCCCCCCCCCCCCCCCCCCC` the boiling point was 450 °C, the log10 biodegradation half-life (days) was 2.24 and the log10 vapour pressure (mmHg) was -10.6. The melting point was 65.8 °C and the ready biodegradability was “readily biodegradable”.
In the case of `O=C(O)CCl`, the boiling point is reported as 189 °C, the log10 Henry constant (atm·m³/mol) is reported as -8.03 and the log10 vapour pressure (mmHg) is reported as -1.19. For the same molecule, the melting point was 63 °C and the ready biodegradability was “readily biodegradable”.
With `COc1ccccc1C` the boiling point was 171 °C and the melting point was -34.1 °C.
With `Clc1cc2oc3cc(Cl)c(Cl)cc3c2cc1Cl` the log10 Henry constant (atm·m³/mol) was -4.78, the log10 Koa was 10 and the melting point was 227 °C.
`NC(=O)C1c2ccccc2CCc2ccccc21` gave a melting point of 194 °C.
In the case of `CCC(C)CC(C)C` (configuration not stated), the boiling point is reported as 110 °C, the log10 biodegradation half-life (days) is reported as 0.845 and the log10 vapour pressure (mmHg) is reported as 1.48.
`C#C[C@]1(O)CC[C@H]2[C@@H]3CCc4cc(O)ccc4[C@H]3[C@@H](OC)C[C@@]21C` gave a melting point of 280 °C.
In the case of `C1CCC2=NCCCN2CC1`, the ready biodegradability is reported as “not readily biodegradable”.
Molecule `O=C(Cl)c1cc([N+](=O)[O-])cc([N+](=O)[O-])c1` has a melting point of 74 °C.
In the case of `CCC(C)(O)CCl` (configuration not stated), the boiling point is reported as 151 °C.
Work on `CN(c1c(Br)cc(Br)cc1Br)c1c([N+](=O)[O-])cc([N+](=O)[O-])cc1C(F)(F)F` yielded a log10 vapour pressure (mmHg) of -7.01 and a melting point of 150 °C.
`O=[N+]([O-])c1ccc(SCl)c([N+](=O)[O-])c1` showed a melting point of 99 °C.
Molecule `Brc1ccc2c3c(cccc13)CC2` has a boiling point of 335 °C and a melting point of 52 °C.
Work on `c1ccc(N2CCN(c3ccccc3)CC2)cc1` yielded a melting point of 165 °C.
With `NCc1ccco1` the boiling point was 146 °C.
For `O=C(O)CNCP(=O)(O)O`, the log10 Koc (L/kg) was 3.32 and the melting point was 190 °C.
`Cc1cccc(O)c1O` showed a boiling point of 241 °C and a melting point of 68 °C.
With `OCC(F)(F)C(F)(F)C(F)(F)C(F)(F)C(F)(F)C(F)(F)C(F)(F)F` the boiling point was 161 °C.
`CCC=CC(C)=O` gave a boiling point of 140 °C.
Molecule `COc1ccc(CCCO)cc1` has a melting point of 26 °C.
`Nc1ccc2ccc3cccc4ccc1c2c34` gave a melting point of 116 °C.
In the case of `CCOC(=O)CCC(=O)OCC`, the boiling point is reported as 218 °C, the log10 vapour pressure (mmHg) is reported as -1.36 and the melting point is reported as -21 °C.
`CCCCCCCI` showed a boiling point of 204 °C, a log10 Henry constant (atm·m³/mol) of -1.41 and a log10 vapour pressure (mmHg) of -0.351. The melting point was -48.2 °C.
For `CC(O)C#N` (configuration not stated), the boiling point was 183 °C, the log10 vapour pressure (mmHg) was -0.925 and the melting point was -40 °C.
`CN(C)C(=O)Cl` gave a boiling point of 167 °C, a log10 vapour pressure (mmHg) of 0.29 and a melting point of -33 °C.
For `CCCC(C)O` (configuration not stated), the boiling point was 119 °C, the log10 Henry constant (atm·m³/mol) was -4.83 and the log10 vapour pressure (mmHg) was 0.786. The melting point was -73 °C and the ready biodegradability was “readily biodegradable”.
With `CCCN(C)C` the boiling point was 66 °C.
`CCCCCCCCCc1ccc(OP(=O)(Oc2ccccc2)Oc2ccccc2)cc1` showed a boiling point of 471 °C, a log10 Henry constant (atm·m³/mol) of -7.85 and a log10 Koc (L/kg) of 4.06.
With `Brc1cc(Br)c(Br)c(Br)c1Br` the melting point was 160 °C.
`CCCCCCCCOC(=O)CCC` showed a boiling point of 244 °C and a melting point of -55.6 °C.
With `NC(=O)OCC(Cl)(Cl)Cl` the melting point was 64 °C.
Work on `CCCOC(=O)c1ccoc1` yielded a boiling point of 211 °C.
Work on `FC(Br)C(F)(F)Br` (configuration not stated) yielded a boiling point of 76 °C.
For `CC(=O)Oc1cc(C)ccc1C(C)C`, the boiling point was 245 °C.
`NCC1CCCCC1` gave a boiling point of 160 °C.
In the case of `O=C(O)/C=C/c1ccc(Cl)cc1Cl`, the melting point is reported as 234 °C.
`ClC(Cl)C(Cl)Cl` showed a boiling point of 146 °C, a log10 Henry constant (atm·m³/mol) of -3.44 and a log10 Koc (L/kg) of 1.9. For the same molecule, the log10 vapour pressure (mmHg) was 0.665, the melting point was -43.8 °C and the ready biodegradability was “not readily biodegradable”.
`c1ccc2c(c1)-c1cccc3cccc-2c13` gave a boiling point of 384 °C, a log10 Henry constant (atm·m³/mol) of -5.05 and a log10 Koa of 8.88. For the same molecule, the log10 Koc (L/kg) was 4.8, the log10 biodegradation half-life (days) was 2.17 and the log10 vapour pressure (mmHg) was -5.04. The ready biodegradability was “not readily biodegradable”.
`CCCC(C)(C)C(C)=O` gave a boiling point of 149 °C.
For `O=c1[nH]c(=O)n(C2CCCO2)cc1F` (configuration not stated), the melting point was 172 °C.
`C/C=C/C/C=C/CCC(=O)[C@H]1O[C@H]1C(N)=O` showed a melting point of 93.5 °C.
`Cc1c(COC(=O)[C@@H]2[C@H](/C=C(\Cl)C(F)(F)F)C2(C)C)cccc1-c1ccccc1` (racemic) showed a log10 Koc (L/kg) of 5.35, a log10 vapour pressure (mmHg) of -6.74 and a melting point of 69 °C.
